Measurements as given in US20100113430A1, “THIOXANTHENE DERIVATES USEFUL TO TREAT INFECTIOUS DISEASES” (BKG PHARMA APS, priority 2007, published 2010).

Test system: Enterococcus faecalis BG VSE-92
Assay: Mouse peritonitis/sepsis model
Assay type: in vivo, NMRI mice
Details: 25 mg/kg s.c.
Procedure: A clinical multiresistant isolate of Enterococcus faecalis BG VSE-92 from human urine was used.
Female NMRI mice (age, approximately 6 to 8 weeks; weight, 30±2 g) were used for the mouse […] peritonitis model (as described below).
Bacterial suspensions were prepared from fresh overnight cultures (made from frozen stock cultures) on 5% blood agar plates as described above. The inoculum for the mouse peritonitis model was prepared immediately before use and was adjusted at 540 nm of giving a density of approximately 10^7 CFU/ml. The size of the inoculum was determined by viability counting on 5% blood agar.
The mice were injected intraperitoneally with 0.5 ml of the enterococcal suspension, resulting in bacteremia within 1 h of inoculation. Antibiotic therapy was initiated 1 h after inoculation. N-dealkyl-trans-clopenthixol was administered subcutaneously in the neck region in a volume of 0.7 ml per dose. Ten mice were in each treatment group. Inoculated untreated control mice were included in all trials. (Method reference: Erlandsdottir et al; Antimicrob Agents Chemother. 2001 April; 45(4):1078-85)
The effects of the various treatment regimens were determined during 6 h of treatment by evaluation of bacterial counts in the […]. After the mice were killed, blood were immediately diluted 10-fold in saline, from which 20 μl was plated onto 5% blood agar plates in spots, with subsequent counting of colonies after incubation overnight at 35° C. The lowest detection levels for bacterial counts in blood were 50 CFU/ml.
The bactericidal efficacies of the treatment regimens in the mouse models were calculated by subtracting the results for each treated mouse from the mean results for control mice at the end of therapy (6 h). A P value of <0.05 was considered significant. All statistical comparisons were two-tailed.

[1] = 6 hours after inoculation, infected mice

## Clc1ccc2c(c1)/C(=C/CCN1CCNCC1)c1ccccc1S2 [N-dealkyl-trans-clopenthixol, trans-1-(3-(2-chloro-thioxanthen-9-ylidene)propyl)piperazine]
[1]
  Cfu/ml blood (median): 1.55 × 10^4 Cfu/ml blood
  Log (cfu/ml blood) (median): 4.19 Log (cfu/ml blood)
p<0.05
  decrease of number of bacteria per ml of blood: approx. 2 log
